# Measured values published in US4709083A, “Method of making boron analogues” (The United States of America as represented by the …, priority 1986, dated 1987).
# Assays:
# [1] = system: serum cholesterol; assay: hyperlipidemic screen: serum cholesterol levels (modified Liebermann-Burchard reaction); assay type: in vivo; details: male CF1 mice, intraperitoneal, 20 mg/kg day, 1% aqueous carboxymethylcellulose
# Procedure: (§1) A hyperlipidemic screen was performed using the compounds of Examples 2 and 4. The compounds were suspended in 1% aqueous carboxymethylcellulose and adimistered to male CF1 mice intraperitoneally for 16 days at a dosage of 20 mg/kg day.
# (§2) On days 9 and 16 blood was obtained by tail vein bleeding and the serum separated by centrifugation for 3 min.
# (§3) Serum cholesterol levels were determined using a modification of the Liebermann-Burchard reaction, see Ness et al, Clin. Chim. Acta, v. 10, p. 229, (1964). Serum triglicerides were determined using the Fisher, Hycel Triglyceride Test Kit, a commercially available kit.
# [2] = system: serum triglyceride; assay: hyperlipidemic screen: serum triglycerides (Fisher, Hycel Triglyceride Test Kit); assay type: in vivo; details: male CF1 mice, intraperitoneal, 20 mg/kg day, 1% aqueous carboxymethylcellulose
# Procedure: as §1, §2, §3
structure (smiles),measurement,setting,value
"[BH3-][N+](C)(C)CCOC(C)=O [Example 2, 2 (Acetoxyethyl)dimethylamine-borane]","Serum cholesterol inhibition %, 9th Day",[1],28%
same,"Serum cholesterol inhibition %, 16th Day",[1],41%
same,"Triglyceride inhibition %, 16th Day",[2],32%
"[BH3-][N+](C)(C)CCOC(=O)c1ccccc1 [Example 4, 2-(benzoyloxyethyl)dimethylamine-Borane]","Serum cholesterol inhibition %, 9th Day",[1],31%
same,"Serum cholesterol inhibition %, 16th Day",[1],37%
same,"Triglyceride inhibition %, 16th Day",[2],31%
